The SangsterLogP compilation

Test: method code SF-ESR, from DOI: 10.3109/10715769009149900, PMID: 2175281
Conditions: pH 2.5
CC1(C)C=C(C(=O)O)C(C)(C)N1O showed a logD of 1.11.
For CC1(C)[C@H](C(=O)O)[C@H](C(=O)O)C(C)(C)N1O, the logD was 0.46.

Same assay, conditions: pH 7.0
Compound CC1(C)CC(CO)C(C)(C)N1O (stereo unspecified) has a logD of 0.34.
For CC1(C)C=C(C(N)=O)C(C)(C)N1O, the logD was 0.25.
CC1(C)C=CC(C)(C)N1O gave a logD of 1.31.
With CC1(C)CC(C(N)=O)C(C)(C)N1O (stereo unspecified) the logD was -0.21.
Work on CC1(C)CC(O)CC(C)(C)N1O yielded a logD of 0.63.
In the case of CC1(C)CC(=O)CC(C)(C)N1O, the logD is reported as 0.12.
CC1(C)C=CCC(C)(C)N1O showed a logD of 1.78.

Same assay, conditions: pH 12.0
Work on CN(C)CC1=CC(C)(C)N(O)C1(C)C yielded a logD of 0.7.
For CN(C)CCN(C)CC1=CC(C)(C)N(O)C1(C)C, the logD was 0.91.
CC1(C)C=C(CN2CCOCC2)CC(C)(C)N1O showed a logD of 1.14.
For CC1(C)CC(CN)C(C)(C)N1O (stereo unspecified), the logD was 0.36.
Compound CC1(C)C=C(CN2CCCCC2)C(C)(C)N1O has a logD of 1.88.
CC1(C)C=C(CN2CCCCC2)CC(C)(C)N1O showed a logD of 1.58.
For CC1(C)CC(N)C(C)(C)N1O (stereo unspecified), the logD was 1.03.
